Measured values as given in PubChem BioAssay (NCI).
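Step 1: Grow cells in 96-well plates. Step 2: Expose to compound for 48 hours at 5 concentrations. Step 3: Interpolate endpoints linearly; if unreached, use highest concentration. TGI: total growth inhibition.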

How the values were obtained:
Assay in all cases: DTP human tumour cell line panel, 48 h
[1] = system: HCT-15 colon
[2] = system: SNB-19 CNS
[3] = system: SK-MEL-2 melanoma
[4] = system: SN12C renal
[5] = system: MOLT-4 leukemia
[6] = system: IGROV1 ovarian
[7] = system: SW-620 colon
[8] = system: SNB-75 CNS
[9] = system: UACC-257 melanoma
[10] = system: NCI-H522 lung
[11] = system: CAKI-1 renal
[12] = system: COLO 205 colon
[13] = system: U251 CNS
[14] = system: SR leukemia
[15] = system: HCT-116 colon
[16] = system: DLD-1 colon
[17] = system: NCI-H460 lung
[18] = system: OVCAR-8 ovarian
[19] = system: HOP-62 NSCLC
[20] = system: A549 NSCLC
[21] = system: 786-0 renal
[22] = system: M14 melanoma
[23] = system: HL-60(TB) leukemia
[24] = system: RXF 393 renal
[25] = system: KM20L2 colon
[26] = system: DMS 114 small cell lung
[27] = system: HOP-18 NSCLC
[28] = system: K-562 leukemia
[29] = system: SF-268 CNS
[30] = system: UACC-62 melanoma
[31] = system: HCC-2998 colon
[32] = system: SNB-78 CNS
[33] = system: SK-OV-3 ovarian
[34] = system: MALME-3M melanoma
[35] = system: UO-31 renal
[36] = system: ACHN renal
[37] = system: LXFL 529 NSCLC
[38] = system: SF-539 CNS
[39] = system: KM12 colon
[40] = system: OVCAR-4 ovarian
[41] = system: TK-10 renal
[42] = system: M19-MEL melanoma
[43] = system: SK-MEL-28 melanoma
[44] = system: NCI-H226 lung
[45] = system: SK-MEL-5 melanoma
[46] = system: A498 renal
[47] = system: RPMI-8226 leukemia
[48] = system: CCRF-CEM leukemia
[49] = system: DMS 273 small cell lung

Measured: TGI

CCSC(=O)C1(C)OC2CCCCC2C1=O (centres undefined)
> 100 µM: all assays above
